Assay results: patent US20260076948A1, “TREATMENT OF DIABETIC RETINOPATHY USING ENDOTHELIN RECEPTOR ANTAGONISTS” (Perfuse Therapeutics, Inc., priority 2019, published 2026)
Entries after “also recorded” stand apart in the source; their conditions may differ.

How the values were obtained:
[1] = Permeability (PAMPA); format: in vitro ADME; details: PAMPA log Pe and PSA
Text: (§1) In the above table, the physicochemical data, e.g., solubility, were obtained following standard protocols known in the field (see, e.g., Reis et al., Mini Rev Med Chem., 2010, 10(11):1071-6; Avdeef et al., Expert Opin Drug Metab Toxicol., 2005, 1(2):325-42; Bharate et al., Comb Chem High Throughput Screen., 2016, 19(6):461-9; and Jain et al., J Pharm Biomed Anal., 2013, 86:11-35.); and the biochemical data, i.e., potency for ETA/ETB, were obtained following the protocols known in the field (see, e.g., Kirkby et al., Br J Pharmacol., 2008, 153(6):1105-19; and Maguire et al., Br J Pharmacol., 2014, 171(24):5555-72.).

[2] = target: T1, ETA (Homo sapiens, UniProt P25101); assay: Functional potency for ETA receptor; format: biochemical
T1 sequence (P25101 21-427): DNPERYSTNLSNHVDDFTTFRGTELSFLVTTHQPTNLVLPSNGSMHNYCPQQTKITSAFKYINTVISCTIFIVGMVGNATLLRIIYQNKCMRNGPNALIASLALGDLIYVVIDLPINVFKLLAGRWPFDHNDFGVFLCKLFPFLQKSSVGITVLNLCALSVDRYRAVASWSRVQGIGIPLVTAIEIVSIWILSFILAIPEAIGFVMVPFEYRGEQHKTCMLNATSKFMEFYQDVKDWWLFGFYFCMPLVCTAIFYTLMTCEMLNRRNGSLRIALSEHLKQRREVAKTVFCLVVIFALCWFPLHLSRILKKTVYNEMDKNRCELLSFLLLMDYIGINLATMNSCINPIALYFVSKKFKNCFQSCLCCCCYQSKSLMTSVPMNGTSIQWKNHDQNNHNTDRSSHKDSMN
Text: as §1

[3] = Solubility (pH 2, pH 7, ethyl acetate); format: physicochemical
Text: as §1

[4] = system: ETA/ETB receptor; details: background statement; cited from earlier work
[5] = Stability in solid state; format: physicochemical; details: 2 h@125° C.
Text: as §1

[6] = system: Morrison's rat model of glaucoma (elevated IOP); assay: Morrison's rat model of glaucoma (RGC counts, PERG); format: in vivo, Brown Norway rats; details: topical eye drops 100 μg per dose, five days a week, four weeks
Text: Adult male and female retired breeder Brown Norway rats (approximate age groups of 8 to 11 months) were obtained from Envigo (Indianapolis, IN). Baseline IOP measurements and pattern electroretinogram (PERG) amplitudes were collected prior to the surgery for elevation of IOP (to ensure that the IOP and PERG amplitudes were in the expected range of values). IOP was elevated in one eye (left eye) of the rats, while the corresponding right eyes served as contralateral controls. The Morrison method to elevate IOP in rats was carried out by injection of 50 μL. of hypertonic saline through the episcleral veins to sclerose the trabecular meshwork. IOP was measured twice a week throughout the entire duration of the experiment. […] After detecting an elevation of IOP for two consecutive days, topical administration of eye drops (20 μL (100 μg) per dose of the tested compounds in the IOP elevated eye) was commenced and carried out for five days a week for a total of four weeks. In the 4th week of treatment, PERG analysis was carried out and rats were sacrificed by an overdose of pentobarbital (Fatal-Plus). Aqueous humor was collected from the rat eyes, frozen and shipped for analysis. Retinal flat mounts were prepared, immunostained with the RGC marker, Brn3a antibody and surviving RGCs were counted in two eccentricities (central and peripheral).
For this study, the Morrison's model was used to induce ocular hypertension in adult male retired breeder Brown Norway rats as previously described by Morrison et al., (Morrison J C, Moore C G, Deppmeier L M, Gold B G, Meshul C K, Johnson E C. A rat model of chronic pressure-induced optic nerve damage. Exp Eye Res. 1997; 64(1):85-96).
The immunostained retinal flat mounts were obtained to measure the retinal ganglion cell (RGC) counts. To obtain immunostained retinal flat mounts, the animals were euthanized after the treatments and then their eyes were enucleated. The eye cups were fixed overnight at 4° C. in 4% paraformaldehyde (PFA) and retinal flat mounts were prepared for collecting images. The retinal ganglion cell (RGC) counting was conducted using the images of immunostained retinal flat mounts. The images were uploaded to ImageJ, a photo editor designed for biology research (Rasband, 1997-2018) and the labeled retinal ganglion cells were counted manually in two eccentricities (central and peripheral).
Pattern ERG (PERG) was used to assess the RGC function. […] Briefly, PERG signals were acquired from a DTL-plus electrode placed on the lower part of the corneal surface and the PERG waves were analyzed using the EMWIN software (LKC). The difference between the amplitude of the major positive (P1) and negative (N2) waves were calculated to decipher the PERG amplitude.

[7] = Pharmacokinetics after topical or oral administration in the rat; format: in vivo, Brown Norway rats
Experimental: After the administrations, the animals (N=2) were euthanized at different time points (e.g. 4 and 8 hours) and tissues were collected for analysis. List of tissues collected include plasma, retina/retinal pigment epithelium (RPE)/choroid, vitreous humor and aqueous humor.

## CCCCCS(=O)(=O)N(CCC)CCN1C[C@H](c2ccc3c(c2)OCO3)[C@@H](C(=O)O)[C@@H]1c1ccc(OC)c(F)c1 [A-182086, (2R,3R,4S)-4-(2H-1,3-benzodioxol-5-yl)-2-(3-fluoro-4-methoxyphenyl)-1-[2-(N-propylpentane-1-sulfonamido)ethyl]pyrrolidine-3-carboxylic acid]
[1]
  Permeability, rating in words: Mid-High
[2]
  Functional potency for ETA and ETB receptors, rating in words: High potency
[2]; ETA vs ETB
  Specificity ETA versus ETB, rating in words: Low specificity
[3]; ethyl acetate
  Solubility in Ethyl Acetate, rating in words: Good
[3]; pH 2
  Solubility at pH 2, comparison in words: superior to that of Edonentan
[4]
  Endothelin receptor antagonism, description in words: potent dual ETA/ETB receptor antagonist
[5]
  Stability in Solid State, in words: unstable
  Stability in Solid State, remaining: about 87% remaining/
[6]
  Pattern electroretinogram (PERG) changes, RGC function: maintained RGC function
  Retinal ganglion cell (RGC) counts in the peripheral retina: prevented RGC loss
[7]; eye drop 100 μg, 4 and 8 hours
  Ocular exposure after topical administration (retina/RPE/choroid, aqueous humor, vitreous humor): detected; also recorded: permeate through cornea/sclera and achieve retina exposure
[7]; oral, 50 mg/kg as printed
  Detection in the retina/RPE/choroid after oral administration: detectable
